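Dose response: 5 concentrations. Exposure: 48 h. Format: 96-well plates. Endpoint: linear interpolation; highest concentration if not reached. Abbreviation: GI50, concentration required for 50% inhibition of growth. TGI denotes the concentration required for complete inhibition of growth.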
Key:
Assay in all cases: NCI-60 cell line screen, 48 h
OVCAR-8 ovarian = test system: OVCAR-8 ovarian
HL-60(TB) leukemia = test system: HL-60(TB) leukemia
CCRF-CEM leukemia = test system: CCRF-CEM leukemia
U251 CNS = test system: U251 CNS
HCC-2998 colon = test system: HCC-2998 colon
UACC-257 melanoma = test system: UACC-257 melanoma
SW-620 colon = test system: SW-620 colon
NCI-H23 lung = test system: NCI-H23 lung
KM12 colon = test system: KM12 colon
OVCAR-5 ovarian = test system: OVCAR-5 ovarian
SF-295 CNS = test system: SF-295 CNS
EKVX NSCLC = test system: EKVX NSCLC
SK-MEL-5 melanoma = test system: SK-MEL-5 melanoma
IGROV1 ovarian = test system: IGROV1 ovarian
K-562 leukemia = test system: K-562 leukemia
A549 NSCLC = test system: A549 NSCLC
MDA-MB-231 breast = test system: MDA-MB-231 breast
LOX IMVI melanoma = test system: LOX IMVI melanoma
MCF7 breast = test system: MCF7 breast
BT-549 breast = test system: BT-549 breast
TK-10 renal = test system: TK-10 renal
PC-3 prostate = test system: PC-3 prostate
HOP-92 NSCLC = test system: HOP-92 NSCLC
NCI-H226 lung = test system: NCI-H226 lung
HCT-116 colon = test system: HCT-116 colon
NCI-H460 lung = test system: NCI-H460 lung
SK-MEL-28 melanoma = test system: SK-MEL-28 melanoma
A498 renal = test system: A498 renal
UO-31 renal = test system: UO-31 renal
COLO 205 colon = test system: COLO 205 colon
SN12C renal = test system: SN12C renal
DU-145 prostate = test system: DU-145 prostate
SNB-19 CNS = test system: SNB-19 CNS
SF-268 CNS = test system: SF-268 CNS
SK-OV-3 ovarian = test system: SK-OV-3 ovarian
MDA-MB-435 = test system: MDA-MB-435
M14 melanoma = test system: M14 melanoma
MDA-N = test system: MDA-N
HT29 colon = test system: HT29 colon
HCT-15 colon = test system: HCT-15 colon
MOLT-4 leukemia = test system: MOLT-4 leukemia
NCI/ADR-RES ovarian = test system: NCI/ADR-RES ovarian
786-0 renal = test system: 786-0 renal
NCI-H522 lung = test system: NCI-H522 lung
UACC-62 melanoma = test system: UACC-62 melanoma
ACHN renal = test system: ACHN renal
OVCAR-3 ovarian = test system: OVCAR-3 ovarian
MALME-3M melanoma = test system: MALME-3M melanoma
SF-539 CNS = test system: SF-539 CNS
OVCAR-4 ovarian = test system: OVCAR-4 ovarian
HS 578T breast = test system: HS 578T breast
CAKI-1 renal = test system: CAKI-1 renal
T-47D breast = test system: T-47D breast
HOP-62 NSCLC = test system: HOP-62 NSCLC
SK-MEL-2 melanoma = test system: SK-MEL-2 melanoma
SNB-75 CNS = test system: SNB-75 CNS
RXF 393 renal = test system: RXF 393 renal
RPMI-8226 leukemia = test system: RPMI-8226 leukemia

SMILES: Cc1cc(-n2c(/C=C/c3ccc(Cl)cc3)nc3cc(Cl)ccc3c2=O)on1
- TGI (OVCAR-8 ovarian): 47.7 µM
- TGI (HL-60(TB) leukemia): > 50 µM
- TGI (CCRF-CEM leukemia): > 50 µM
- TGI (U251 CNS): 16.4 µM
- TGI (HCC-2998 colon): > 50 µM
- TGI (UACC-257 melanoma): > 50 µM
- TGI (SW-620 colon): > 50 µM
- TGI (NCI-H23 lung): > 50 µM
- TGI (KM12 colon): > 50 µM
- TGI (OVCAR-5 ovarian): > 50 µM
- TGI (SF-295 CNS): > 50 µM
- TGI (EKVX NSCLC): > 50 µM
- TGI (SK-MEL-5 melanoma): > 50 µM
- TGI (IGROV1 ovarian): > 50 µM
- TGI (K-562 leukemia): > 50 µM
- TGI (A549 NSCLC): > 50 µM
- TGI (MDA-MB-231 breast): 42.4 µM
- TGI (LOX IMVI melanoma): > 50 µM
- TGI (MCF7 breast): > 50 µM
- TGI (BT-549 breast): > 50 µM
- TGI (TK-10 renal): > 50 µM
- TGI (PC-3 prostate): > 50 µM
- TGI (HOP-92 NSCLC): > 50 µM
- TGI (NCI-H226 lung): 33.2 µM
- TGI (HCT-116 colon): 29.6 µM
- TGI (NCI-H460 lung): 22 µM
- TGI (SK-MEL-28 melanoma): > 50 µM
- TGI (A498 renal): 11.5 µM
- TGI (UO-31 renal): 19.7 µM
- TGI (COLO 205 colon): > 50 µM
- TGI (SN12C renal): > 50 µM
- TGI (DU-145 prostate): > 50 µM
- TGI (SNB-19 CNS): 26.6 µM
- TGI (SF-268 CNS): > 50 µM
- TGI (SK-OV-3 ovarian): 42.3 µM
- TGI (MDA-MB-435): > 50 µM
- TGI (M14 melanoma): 32.9 µM
- TGI (MDA-N): > 50 µM
- TGI (HT29 colon): > 50 µM
- TGI (HCT-15 colon): > 50 µM
- TGI (MOLT-4 leukemia): > 50 µM
- TGI (NCI/ADR-RES ovarian): 39 µM
- TGI (786-0 renal): 5.19 µM
- TGI (NCI-H522 lung): > 50 µM
- TGI (UACC-62 melanoma): > 50 µM
- TGI (ACHN renal): 24.1 µM
- TGI (OVCAR-3 ovarian): 30.9 µM
- TGI (MALME-3M melanoma): > 50 µM
- TGI (SF-539 CNS): > 50 µM
- TGI (OVCAR-4 ovarian): 4.05 µM
- TGI (HS 578T breast): 31.4 µM
- TGI (CAKI-1 renal): > 50 µM
- TGI (T-47D breast): > 50 µM
- TGI (HOP-62 NSCLC): 18.3 µM

SMILES: CN1CCCC1c1cccnc1.O=C(O)c1ccccc1O.O=C([O-])c1ccccc1[OH2+].O=C([O-])c1ccccc1[OH2+].O=C([O-])c1ccccc1[OH2+].[Cu+2] (centres undefined)
- GI50 (OVCAR-8 ovarian): > 100 µM
- TGI (OVCAR-8 ovarian): > 100 µM
- GI50 (HL-60(TB) leukemia): > 100 µM
- TGI (HL-60(TB) leukemia): > 100 µM
- GI50 (CCRF-CEM leukemia): > 100 µM
- TGI (CCRF-CEM leukemia): > 100 µM
- GI50 (U251 CNS): > 100 µM
- TGI (U251 CNS): > 100 µM
- GI50 (UACC-257 melanoma): > 100 µM
- TGI (UACC-257 melanoma): > 100 µM
- GI50 (SW-620 colon): > 100 µM
- TGI (SW-620 colon): > 100 µM
- GI50 (NCI-H23 lung): > 100 µM
- TGI (NCI-H23 lung): > 100 µM
- GI50 (SK-MEL-2 melanoma): > 100 µM
- TGI (SK-MEL-2 melanoma): > 100 µM
- GI50 (KM12 colon): > 100 µM
- TGI (KM12 colon): > 100 µM
- GI50 (OVCAR-5 ovarian): > 100 µM
- TGI (OVCAR-5 ovarian): > 100 µM
- GI50 (SF-295 CNS): > 100 µM
- TGI (SF-295 CNS): > 100 µM
- GI50 (EKVX NSCLC): > 100 µM
- TGI (EKVX NSCLC): > 100 µM
- GI50 (SK-MEL-5 melanoma): 33.3 µM
- TGI (SK-MEL-5 melanoma): > 100 µM
- GI50 (IGROV1 ovarian): 91.1 µM
- TGI (IGROV1 ovarian): > 100 µM
- GI50 (K-562 leukemia): > 100 µM
- TGI (K-562 leukemia): > 100 µM
- GI50 (A549 NSCLC): 78.9 µM
- TGI (A549 NSCLC): > 100 µM
- GI50 (MDA-MB-231 breast): > 100 µM
- TGI (MDA-MB-231 breast): > 100 µM
- GI50 (LOX IMVI melanoma): > 100 µM
- TGI (LOX IMVI melanoma): > 100 µM
- GI50 (MCF7 breast): 45.3 µM
- TGI (MCF7 breast): > 100 µM
- GI50 (BT-549 breast): > 100 µM
- TGI (BT-549 breast): > 100 µM
- GI50 (TK-10 renal): > 100 µM
- TGI (TK-10 renal): > 100 µM
- GI50 (PC-3 prostate): > 100 µM
- TGI (PC-3 prostate): > 100 µM
- GI50 (HOP-92 NSCLC): > 100 µM
- TGI (HOP-92 NSCLC): > 100 µM
- GI50 (NCI-H226 lung): > 100 µM
- TGI (NCI-H226 lung): > 100 µM
- GI50 (HCT-116 colon): > 100 µM
- TGI (HCT-116 colon): > 100 µM
- GI50 (SK-MEL-28 melanoma): > 100 µM
- TGI (SK-MEL-28 melanoma): > 100 µM
- GI50 (SNB-75 CNS): > 100 µM
- TGI (SNB-75 CNS): > 100 µM
- GI50 (A498 renal): 31.3 µM
- TGI (A498 renal): 76.1 µM
- GI50 (UO-31 renal): > 100 µM
- TGI (UO-31 renal): > 100 µM
- GI50 (COLO 205 colon): > 100 µM
- TGI (COLO 205 colon): > 100 µM
- GI50 (SN12C renal): > 100 µM
- TGI (SN12C renal): > 100 µM
- GI50 (DU-145 prostate): > 100 µM
- TGI (DU-145 prostate): > 100 µM
- GI50 (SNB-19 CNS): 39.6 µM
- TGI (SNB-19 CNS): > 100 µM
- GI50 (SF-268 CNS): > 100 µM
- TGI (SF-268 CNS): > 100 µM
- GI50 (SK-OV-3 ovarian): > 100 µM
- TGI (SK-OV-3 ovarian): > 100 µM
- GI50 (MDA-MB-435): > 100 µM
- TGI (MDA-MB-435): > 100 µM
- GI50 (M14 melanoma): > 100 µM
- TGI (M14 melanoma): > 100 µM
- GI50 (MDA-N): > 100 µM
- TGI (MDA-N): > 100 µM
- GI50 (RXF 393 renal): > 100 µM
- TGI (RXF 393 renal): > 100 µM
- GI50 (HT29 colon): > 100 µM
- TGI (HT29 colon): > 100 µM
- GI50 (HCT-15 colon): > 100 µM
- TGI (HCT-15 colon): > 100 µM
- GI50 (MOLT-4 leukemia): > 100 µM
- TGI (MOLT-4 leukemia): > 100 µM
- GI50 (NCI/ADR-RES ovarian): > 100 µM
- TGI (NCI/ADR-RES ovarian): > 100 µM
- GI50 (786-0 renal): > 100 µM
- TGI (786-0 renal): > 100 µM
- GI50 (NCI-H522 lung): > 100 µM
- TGI (NCI-H522 lung): > 100 µM
- GI50 (UACC-62 melanoma): > 100 µM
- TGI (UACC-62 melanoma): > 100 µM
- GI50 (RPMI-8226 leukemia): > 100 µM
- TGI (RPMI-8226 leukemia): > 100 µM
- GI50 (ACHN renal): > 100 µM
- TGI (ACHN renal): > 100 µM
- GI50 (OVCAR-3 ovarian): > 100 µM
- TGI (OVCAR-3 ovarian): > 100 µM
- GI50 (MALME-3M melanoma): > 100 µM
- TGI (MALME-3M melanoma): > 100 µM
- GI50 (OVCAR-4 ovarian): 56.1 µM
- TGI (OVCAR-4 ovarian): > 100 µM
- GI50 (HS 578T breast): > 100 µM
- TGI (HS 578T breast): > 100 µM
- GI50 (CAKI-1 renal): > 100 µM
- TGI (CAKI-1 renal): > 100 µM
- GI50 (T-47D breast): > 100 µM
- TGI (T-47D breast): > 100 µM
- GI50 (HOP-62 NSCLC): > 100 µM
- TGI (HOP-62 NSCLC): > 100 µM
